Test results from PubChem BioAssay AID1752 (Sanford-Burnham Center for Chemical Genomics, 2009).
Where “and” joins values, the source holds several entries; their conditions need not be identical. Equal values may be shown once. Calls of active or inactive are those of the source. The rule behind the calls is not given here.

Each molecule was assayed on PPC-1 cells, TRAIL-induced apoptosis potentiation (assay: TRAIL sensitization of PPC-1 cells, potency – analog series, SAR follow-up (AID 1752)).

Structure (SMILES)	IC50
CSc1nc(-c2ccccc2)nc(-c2ccccc2)n1	> 10 µM (inactive)
CCSc1cc(N2CCCC2)nc(-c2ccc(Cl)cc2)n1	> 10 µM (inactive)
COc1cc(-c2ccccc2)[nH]c(=S)n1	> 10 µM (inactive)
CSc1nc(-c2ccccc2)nc(C(C)C)n1	> 10 µM (inactive)
CSc1nc(-c2ccc(C)cc2)nc(C(Cl)Cl)n1	0.372 µM and 0.602 µM
CSc1nc(-c2ccccc2)nc(-c2ccccc2OC(C)=O)n1	> 10 µM (inactive)
CCSc1nc(-c2ccccc2)cc(=O)[nH]1	> 10 µM (inactive)
CC(Sc1nc(-c2ccccc2)cc(C(F)(F)F)n1)C(=O)N1CCCC1 (stereo not drawn)	> 10 µM (inactive)
